# Laboratory results taken from article PMC8942502 (Journal of Enzyme Inhibition and Medicinal Chemistry, 2022).
# Where two headings read alike, the source gives them in different places.
# Legend:
# LSD1-CoREST complex [1] = molecular target: T1, LSD1-CoREST complex (Homo sapiens, UniProt O60341); assay: LSD1-CoREST inhibition assay (Amplex UltraRed/HRP, H3K4 peptide); format: biochemical; conditions: for IC50: mean ± SD from two experiments in duplicate, 10 min preincubation; for fold drop of anti-LSD1 potency compared with phenyl analogue: para compounds vs 1a, meta compound vs 1b
# T1 construct: made in house; host or cells: Escherichia coli
# hMAO-A = molecular target: T2, hMAO-A (Homo sapiens, UniProt P21397); assay: Anti-MAO assay (Amplex Red, p-tyramine); format: biochemical; conditions: for MAO Selectivity Index: IC50 MAO-B/IC50 MAO-A; for IC50: mean ± SD, n = 3
# T2 construct: purchased Sigma-Aldrich
# T2 sequence (P21397 1-527): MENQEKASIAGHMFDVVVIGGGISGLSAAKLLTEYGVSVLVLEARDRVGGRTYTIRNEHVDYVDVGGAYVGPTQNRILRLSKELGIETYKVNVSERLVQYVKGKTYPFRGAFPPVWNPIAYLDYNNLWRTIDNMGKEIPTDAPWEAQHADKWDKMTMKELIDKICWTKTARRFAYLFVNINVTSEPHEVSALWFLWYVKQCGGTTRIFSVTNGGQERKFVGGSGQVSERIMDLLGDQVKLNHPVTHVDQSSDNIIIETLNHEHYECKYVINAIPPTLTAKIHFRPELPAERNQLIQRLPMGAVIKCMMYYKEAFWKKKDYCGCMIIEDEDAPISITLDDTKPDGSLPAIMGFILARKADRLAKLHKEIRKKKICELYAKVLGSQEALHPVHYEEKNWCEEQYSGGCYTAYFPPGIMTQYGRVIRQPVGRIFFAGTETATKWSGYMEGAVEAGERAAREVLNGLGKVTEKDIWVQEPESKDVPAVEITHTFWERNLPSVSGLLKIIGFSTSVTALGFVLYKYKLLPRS
# hMAO-B = molecular target: T3, hMAO-B (Homo sapiens, UniProt P27338); assay: Anti-MAO assay (Amplex Red, p-tyramine); format: biochemical; conditions: mean ± SD, n = 3
# T3 construct: purchased Sigma-Aldrich
# T3 sequence (P27338 1-520): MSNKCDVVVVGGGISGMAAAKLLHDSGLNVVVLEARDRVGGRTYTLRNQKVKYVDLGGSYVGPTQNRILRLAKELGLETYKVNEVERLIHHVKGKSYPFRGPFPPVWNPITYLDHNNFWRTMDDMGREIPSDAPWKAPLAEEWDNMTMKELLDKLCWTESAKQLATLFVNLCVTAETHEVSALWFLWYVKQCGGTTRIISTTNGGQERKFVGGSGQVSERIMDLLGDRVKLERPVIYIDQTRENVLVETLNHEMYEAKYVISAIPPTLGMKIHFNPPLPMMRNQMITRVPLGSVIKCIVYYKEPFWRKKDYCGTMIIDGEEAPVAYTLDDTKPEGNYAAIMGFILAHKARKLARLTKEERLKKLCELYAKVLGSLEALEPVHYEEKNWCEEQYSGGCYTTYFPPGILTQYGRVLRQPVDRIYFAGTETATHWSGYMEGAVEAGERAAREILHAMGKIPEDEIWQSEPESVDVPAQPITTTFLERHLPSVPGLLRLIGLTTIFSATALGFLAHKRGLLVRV
# LSD1-CoREST complex [2] = assay: LSD1-CoREST inhibition assay (Amplex UltraRed/HRP, H3K4 peptide); format: biochemical, human; conditions: for LSD1 selectivity vs MAO-A: IC50 MAO-A/IC50 LSD1; for LSD1 selectivity vs MAO-B: IC50 MAO-B/IC50 LSD1
# LNCaP cells [3] = assay: MTT cell viability assay; format: cell-based; conditions: Homo sapiens
# Method: (§1) The tested compounds have been dissolved in DMSO at […] as stock concentration. All compounds have been tested at 10 μM and 50 μM as final concentrations for WB analysis. All compounds have been used at 0.1 μM, 5 μM, 10 μM, 25 μM, 50 μM as final concentration for proliferation assays. ORY-1001 (Selleck Catalog No. S7795) was used as reference compound at the concentration of 25 μM.
# (§2) Cell culture LNCaP and U937 were purchased from ATCC (Milan, Italy). LNCaP were grown in Roswell Park Memorial Institute culture medium (RPMI; EuroClone, Milan, Italy), supplemented with 10% heat-inactivated foetal bovine serum (FBS; Sigma-Aldrich, Schnellendorf, Germany), antimicrobials (100 U/mL penicillin, 100 µg/mL streptomycin, 250 ng/mL amphotericin-B), 2 mM L-glutamine (EuroClone, Milan, Italy), and 1% essential amino acids solution (MEM; EuroClone, Milan, Italy). U937 were cultured in Dulbecco’s Modified Eagle Medium (DMEM; EuroClone, Milan, Italy), supplemented with 10% heat-inactivated foetal bovine serum (FBS; Sigma-Aldrich, Schnellendorf, Germany), antimicrobials (100 U/mL penicillin, 100 µg/mL streptomycin, 250 ng/mL amphotericin-B), 2 mM L-glutamine (EuroClone). Cells have grown in standard incubator conditions at 37 °C and 5% CO2.
# (§3) Cell viability was determined on LNCaP and U937 cell lines using Thiazolyl Blue Tetrazolium Bromide [3-(4,5-dimethylthiazol-2-yl)-2,5-diphenyltetrazolium bromide] (MTT; Sigma-Aldrich, Schnellendorf, Germany) assay, following manufacturer’s instructions. A total of 5 × 10^3 cells/well were plated in a 96-well plate and treated, in duplicates, and repeated for three times, with the tested compounds at different concentrations 0.1 μM, 5 μM, 10 μM, 25 μM, 50 μM as final concentrations for 48 h, and 72 h. […] Absorbance was read at a wavelength of 570 nm with a TECAN M − 200 reader (Tecan, Männedorf, Switzerland).
# U937 cells = assay: MTT cell viability assay; format: cell-based; conditions: 0.1-50 μM, 48 and 72 h
# Method: as §1, §2, §3
# LSD1 = conditions: Figure 1; cited from earlier work
# MAO-A = conditions: Figure 1, cited from earlier work
# MAO-B = conditions: Figure 1, cited from earlier work
# [4] = system: MV4-11 acute myeloid leukaemia (AML) cells; set-up: method as in PMID 32003940; conditions: cited from earlier work
# NB4 APL cells = system: NB4 APL cells; set-up: method as in PMID 32003940; conditions: cited from earlier work
# LNCaP cells [5] = system: LNCaP cells; set-up: method as in PMID 30693539; conditions: 72 h; cited from earlier work
structure (smiles),measurement,setting,value
"Cl.NC1CC1c1ccc(NC(=O)c2ccc(-c3ccoc3)cc2)cc1 (centres unmarked) [3a, N-(4-(2-Aminocyclopropyl)phenyl)-4-(furan-3-yl)benzamide hydrochloride]",IC50,LSD1-CoREST complex [1],2340 ± 225 nM
same,MAO Selectivity Index,hMAO-A,0.6
same,IC50,hMAO-A,160 ± 14 nM
same,IC50,hMAO-B,93 ± 8 nM
"Cl.NC1CC1c1ccc(NC(=O)c2ccc(-c3ccncc3)cc2)cc1 (centres unmarked) [6a, N-(4-(2-Aminocyclopropyl)phenyl)-4-(pyridin-4-yl)benzamide hydrochloride]",IC50,LSD1-CoREST complex [1],13900 ± 3060 nM
same,fold drop of anti-LSD1 potency compared with phenyl analogue,LSD1-CoREST complex [1],73 fold
same,MAO Selectivity Index,hMAO-A,5.2
same,IC50,hMAO-A,69 ± 6 nM
same,IC50,hMAO-B,358 ± 31 nM
same,melting point,,> 250 °C
"Cl.NC1CC1c1ccc(NC(=O)c2cccc(-c3ccoc3)c2)cc1 (centres unmarked) [3b, N-(4-(2-Aminocyclopropyl)phenyl)-3-(furan-3-yl)benzamide hydrochloride]",IC50,LSD1-CoREST complex [1],221 ± 23 nM
same,LSD1 selectivity vs MAO-A,LSD1-CoREST complex [2],5.1
same,LSD1 selectivity vs MAO-B,LSD1-CoREST complex [2],2.3
same,MAO Selectivity Index,hMAO-A,0.5
same,IC50,hMAO-A,1120 ± 97 nM
same,IC50,hMAO-B,519 ± 36 nM
same,IC50,LNCaP cells [3]; 48 h,12400 ± 6100 nM
same,IC50,LNCaP cells [3]; 72 h,13400 ± 3700 nM
same,effect on cell viability in U937 cells,U937 cells,the most potent
same,melting point,,235 to 238 °C
"NC1CC1c1ccc(NC(=O)c2ccccc2)cc1 (centres unmarked) [MC2584, reference compound]",IC50,LSD1,19 nM
same,IC50,MAO-A,31 nM
same,IC50,MAO-B,8980 nM
"Cl.NC1CC1c1ccc(NC(=O)c2cccc(-c3ccco3)c2)cc1 (centres unmarked) [2b, N-(4-(2-Aminocyclopropyl)phenyl)-3-(furan-2-yl)benzamide hydrochloride]",IC50,LSD1-CoREST complex [1],110 ± 44 nM
same,LSD1 selectivity vs MAO-A,LSD1-CoREST complex [2],0.8
same,LSD1 selectivity vs MAO-B,LSD1-CoREST complex [2],8.1
same,MAO Selectivity Index,hMAO-A,9.5
same,IC50,hMAO-A,93 ± 8 nM
same,IC50,hMAO-B,888 ± 77 nM
same,IC50,LNCaP cells [3]; 48 h,27600 ± 9800 nM
same,IC50,LNCaP cells [3]; 72 h,18500 ± 2700 nM
same,effect on cell viability in U937 cells,U937 cells,almost ineffective
same,melting point,,208 to 210 °C
"Cl.NC1CC1c1ccc(NC(=O)c2cccc(-c3ccccc3)c2)cc1 (centres unmarked) [1b, N-(4-(2-Aminocyclopropyl)phenyl)-[1,1′-biphenyl]-3-carboxamide hydrochloride]",IC50,LSD1-CoREST complex [1],149 ± 43 nM
same,fold higher potency against LSD1 of meta regioisomer than para counterpart,LSD1-CoREST complex [1]; meta vs para,1.3 fold
same,LSD1 selectivity vs MAO-A,LSD1-CoREST complex [2],0.2
same,LSD1 selectivity vs MAO-B,LSD1-CoREST complex [2],2.2
same,MAO Selectivity Index,hMAO-A,11.7
same,IC50,hMAO-A,28 ± 2 nM
same,IC50,hMAO-B,327 ± 28 nM
same,IC50,LNCaP cells [3]; 48 h,22800 ± 5100 nM
same,IC50,LNCaP cells [3]; 72 h,9900 ± 1700 nM
same,effect on cell viability in U937 cells,U937 cells,the most potent
same,melting point,,> 250 °C
NC1CC1c1ccc(NC(=O)c2ccc(-c3ccccc3)cc2)cc1 (centres unmarked) [1a],IC50,LSD1-CoREST complex [1],190 ± 30 nM
same,IC50,LNCaP cells [3]; 48 h,34100 ± 13200 nM
same,IC50,LNCaP cells [3]; 72 h,25400 ± 3200 nM
same,effect on cell viability in U937 cells,U937 cells,almost ineffective
same,IC50,LSD1,51 nM
same,MAO-A inhibition,MAO-A; @ 100 μM,2%
same,MAO-B inhibition,MAO-B; @ 100 μM,8%
same,cell growth arrest IC50,[4],"low, single-digit micromolar levels"
same,cell growth arrest IC50,NB4 APL cells,"low, single-digit micromolar levels"
"Cl.NC1CC1c1ccc(NC(=O)c2ccc(-c3ccsc3)cc2)cc1 (centres unmarked) [5a, N-(4-(2-Aminocyclopropyl)phenyl)-4-(thiophen-3-yl)benzamide hydrochloride]",IC50,LSD1-CoREST complex [1],341 ± 106 nM
same,MAO Selectivity Index,hMAO-A,1.6
same,IC50,hMAO-A,42 ± 4 nM
same,IC50,hMAO-B,67 ± 6 nM
same,IC50,LNCaP cells [3]; 48 h,26500 ± 4800 nM
same,IC50,LNCaP cells [3]; 72 h,17900 ± 1600 nM
same,effect on cell viability in U937 cells,U937 cells,the most potent
"Cl.NC1CC1c1ccc(NC(=O)c2ccc(-c3ccco3)cc2)cc1 (centres unmarked) [2a, N-(4-(2-Aminocyclopropyl)phenyl)-4-(furan-2-yl)benzamide hydrochloride]",IC50,LSD1-CoREST complex [1],2000 ± 528 nM
same,MAO Selectivity Index,hMAO-A,1.7
same,IC50,hMAO-A,43 ± 4 nM
same,IC50,hMAO-B,73 ± 6 nM
C#CCN(C)CCCOc1ccc(Cl)cc1Cl [clorgyline],IC50,LNCaP cells [5],63700 ± 8200 nM
"Cl.NC1CC1c1ccc(NC(=O)c2ccc(-c3cccs3)cc2)cc1 (centres unmarked) [4a, N-(4-(2-Aminocyclopropyl)phenyl)-4-(thiophen-2-yl)benzamide hydrochloride]",IC50,LSD1-CoREST complex [1],1080 ± 359 nM
same,MAO Selectivity Index,hMAO-A,1.3
same,IC50,hMAO-A,25 ± 2 nM
same,IC50,hMAO-B,32 ± 3 nM
same,melting point,,> 250 °C
"Cl.NC1CC1c1ccc(NC(=O)c2cccc(-c3ccncc3)c2)cc1 (centres unmarked) [6b, N-(4-(2-Aminocyclopropyl)phenyl)-3-(pyridin-4-yl)benzamide hydrochloride]",IC50,LSD1-CoREST complex [1],572 ± 157 nM
same,fold drop of anti-LSD1 potency compared with phenyl analogue,LSD1-CoREST complex [1],4 fold
same,LSD1 selectivity vs MAO-A,LSD1-CoREST complex [2],0.3
same,LSD1 selectivity vs MAO-B,LSD1-CoREST complex [2],18.2
same,MAO Selectivity Index,hMAO-A,66
same,IC50,hMAO-A,159 ± 14 nM
same,IC50,hMAO-B,10400 ± 300 nM
same,melting point,,> 250 °C
"Cl.NC1CC1c1ccc(NC(=O)c2cccc(-c3cccs3)c2)cc1 (centres unmarked) [4b, N-(4-(2-Aminocyclopropyl)phenyl)-3-(thiophen-2-yl)benzamide hydrochloride]",IC50,LSD1-CoREST complex [1],15 ± 3 nM
same,LSD1 selectivity vs MAO-A,LSD1-CoREST complex [2],1.6
same,LSD1 selectivity vs MAO-B,LSD1-CoREST complex [2],24.4
same,MAO Selectivity Index,hMAO-A,15.3
same,IC50,hMAO-A,24 ± 2 nM
same,IC50,hMAO-B,366 ± 32 nM
same,IC50,LNCaP cells [3]; 48 h,25700 ± 8300 nM
same,IC50,LNCaP cells [3]; 72 h,15200 ± 3500 nM
same,effect on cell viability in U937 cells,U937 cells,almost ineffective
same,melting point,,245 to 248 °C
"Cl.NC1CC1c1ccc(NC(=O)c2cccc(-c3ccsc3)c2)cc1 (centres unmarked) [5b, N-(4-(2-Aminocyclopropyl)phenyl)-3-(thiophen-3-yl)benzamide hydrochloride]",IC50,LSD1-CoREST complex [1],5 ± 0.8 nM
same,IC50,hMAO-A,28 ± 2 nM
same,IC50,hMAO-B,820 ± 71 nM
same,IC50,LNCaP cells [3]; 48 h,32100 ± 7800 nM
same,IC50,LNCaP cells [3]; 72 h,17200 ± 3500 nM
same,effect on cell viability in U937 cells,U937 cells,the most potent
same,melting point,,> 250 °C
